Publication PMC12592400, “A unique inhibitor conformation selectively targets the DNA polymerase PolC of Gram-positive priority pathogens” (Nature Communications, 2025)
≈ marks a conversion by molar mass, not a printed value. Where “and” joins values, the source holds several entries; their conditions need not be identical. Identical values can stand only once.

How the values were obtained:
E. faecium DnaE = molecular target: T1, E. faecium DnaE (Enterococcus faecium, UniProt Q3XYP9); experiment: Real-time DNA primer extension assay; type: biochemical; conditions: for rate of activity (slope of fluorescence intensity change over time): Fig. 1f source data, E. faecium DnaE; for IC50: Fig. 1f, n = 3, ± SEM
T1 sequence (Q3XYP9 1-1104): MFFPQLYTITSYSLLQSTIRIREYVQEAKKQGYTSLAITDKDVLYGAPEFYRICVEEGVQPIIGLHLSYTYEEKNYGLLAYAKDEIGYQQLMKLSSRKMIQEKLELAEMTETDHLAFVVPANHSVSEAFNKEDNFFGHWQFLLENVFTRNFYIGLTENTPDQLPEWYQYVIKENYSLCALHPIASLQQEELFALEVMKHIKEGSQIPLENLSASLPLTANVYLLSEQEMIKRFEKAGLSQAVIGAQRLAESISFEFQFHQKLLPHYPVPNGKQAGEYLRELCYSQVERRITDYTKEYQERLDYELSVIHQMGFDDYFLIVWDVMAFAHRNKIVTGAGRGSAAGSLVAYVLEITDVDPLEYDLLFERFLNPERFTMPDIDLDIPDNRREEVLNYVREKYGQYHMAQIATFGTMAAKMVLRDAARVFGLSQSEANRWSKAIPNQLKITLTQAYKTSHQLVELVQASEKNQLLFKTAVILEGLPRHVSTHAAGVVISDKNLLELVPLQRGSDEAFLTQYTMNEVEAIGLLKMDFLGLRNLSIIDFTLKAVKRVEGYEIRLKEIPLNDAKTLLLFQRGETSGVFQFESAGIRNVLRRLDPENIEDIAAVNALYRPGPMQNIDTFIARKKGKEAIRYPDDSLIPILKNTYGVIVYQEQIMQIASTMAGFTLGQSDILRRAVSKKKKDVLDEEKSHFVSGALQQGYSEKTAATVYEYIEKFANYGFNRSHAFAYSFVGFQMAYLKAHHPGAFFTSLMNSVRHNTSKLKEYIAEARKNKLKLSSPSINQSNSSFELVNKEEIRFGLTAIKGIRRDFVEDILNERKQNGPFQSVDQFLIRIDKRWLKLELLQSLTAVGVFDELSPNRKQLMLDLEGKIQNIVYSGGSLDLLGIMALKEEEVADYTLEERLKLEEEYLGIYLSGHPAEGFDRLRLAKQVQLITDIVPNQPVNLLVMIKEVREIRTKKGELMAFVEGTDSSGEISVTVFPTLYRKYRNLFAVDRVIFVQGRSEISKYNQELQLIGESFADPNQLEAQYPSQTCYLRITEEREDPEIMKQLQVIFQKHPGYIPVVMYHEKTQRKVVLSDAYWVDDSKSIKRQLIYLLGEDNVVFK

C. difficile 630Δerm = experiment: Simplified agar dilution susceptibility of C. difficile carrying plasmid-based polC alleles; type: cell-based, Clostridioides difficile; conditions: for MIC: Clostridioides difficile, 48 h
Procedure: E. coli strains were cultured aerobically at 37 °C at 180 rpm in Lysogeny Broth (LB) (1% w/v tryptone (Oxoid), 1% w/v NaCl (J.T.Baker), 0.5% w/v yeast extract). C. difficile strains were cultured in Brain Heart Infusion broth (BHI) (3.7% w/v brain heart infusion broth (Oxoid), 0.5% w/v yeast extract). Culturing of C. difficile was carried out anaerobically at 37 °C at 140 rpm in an atmosphere of 85% N2, 10% CO2, and 5% H2, using a Don Whitley VA1000 workstation. For solid media, 1.5% w/v agar (Alfa Aesar) was used. Where appropriate, media were supplemented with 50 mg/L colistin (Cayman Chemical), chloramphenicol (10 mg/L for liquid medium and 20 mg/L for agar plates), 30 mg/L kanamycin, and 15 mg/L thiamphenicol.
DNA fragments were amplified by PCR from total genomic DNA of C. difficile strain 630Δerm[40] with Q5 High-Fidelity DNA Polymerase (NEB), using oligonucleotides oNM-001/oNM-003 (amplifying the polC gene with its presumptive promoter). The oNM-001/oNM-003 PCR fragment was digested using KpnI (Roche) and BamHI (Thermo Scientific). Digesting of plasmid pAP24[65] with enzymes allowed for the isolation of plasmid backbone after agarose gel electrophoresis. The backbone was ligated to the digested PCR fragments and transformed into chemically competent DH5α E. coli cells by heat shock; transformants were selected on media containing chloramphenicol. To generate plasmids carrying variant polC genes, mutations were introduced in the plasmids harbouring wild-type polC using QuikChange Site-Directed Mutagenesis and verified by Sanger sequencing using primers listed in Supplementary Table 3. An overview of all constructed plasmids and strains can be found in Supplementary Table 4 and 5.
E. coli donor strain CA434 was transformed with the plasmid to be transferred and subsequently grown on agar plates containing chloramphenicol and kanamycin. A 1 mL aliquot of 20 h grown liquid E. coli transformant culture was pelleted by centrifugation (2 min at 10,000 x g) and cells were resuspended in 200 µL non-sporulating C. difficile 630Δerm culture. The mixture was plated onto non-selective BHI agar in 5 µL spots and after 20 h incubation, cells were harvested in 1 mL pre-reduced phosphate-buffered saline and plated in 100 µL aliquots on BHI agar supplemented with thiamphenicol and colistin. Putative transconjugants were confirmed by PCRs with primers oWKS-1070 and oWKS-1071 (targeting chromosomal gluD) and oWKS-1387, oWKS-1388, oWKS-1389, and oWKS-1390 (targeting traJ or repA on the plasmid). Note that these strains are merodiploid and carry a wild-type chromosomal copy of polC.
Susceptibilities of the parental and plasmid-carrying strains to IBZ and ACX-801 were determined using a simplified agar dilution method. In short, C. difficile strains were cultured for 20 h in liquid BHI. Bacterial cells were harvested by 10-min centrifugation at 3220 x g and resuspended in pre-reduced phosphate-buffered saline to a McFarland turbidity standard of 1.0. Suspensions were inoculated as 5 µL spots onto BHI agar containing different concentrations of inhibitor (0, 2, 4, 8, 16, 32, 64 mg/L). MICs (defined as the first dilution with severely impaired or no visible growth) were determined after 48 h and imaged on a SCAN500 plate imager (Interscience).

[1] = plasmid carrying polC-p.F1258I versus wild-type strain
[2] = plasmid carrying polC-p.F1258L versus wild-type strain
[3] = plasmid carrying polC-p.F1258S versus wild-type strain

Row | Structure (SMILES) | rate of activity (slope of fluorescence intensity change over time) (E. faecium DnaE; inhibitor 2.5 uM) | rate of activity (slope of fluorescence intensity change over time) (E. faecium DnaE; inhibitor 4 uM) | rate of activity (slope of fluorescence intensity change over time) (E. faecium DnaE; inhibitor 12.5 uM) | rate of activity (slope of fluorescence intensity change over time) (E. faecium DnaE; inhibitor 20 uM) | rate of activity (slope of fluorescence intensity change over time) (E. faecium DnaE; inhibitor 30 uM) | rate of activity (slope of fluorescence intensity change over time) (E. faecium DnaE; inhibitor 45 uM) | rate of activity (slope of fluorescence intensity change over time) (E. faecium DnaE; inhibitor 67.5 uM) | rate of activity (slope of fluorescence intensity change over time) (E. faecium DnaE; inhibitor 100 uM) | IC50 (E. faecium DnaE) [µM] | inhibition towards E. faecium DnaE lower than PolC (E. faecium DnaE; in vitro, DnaE versus PolC) | MIC (C. difficile 630Δerm) [µg/mL] | increase of MIC (C. difficile 630Δerm; [1]) [fold] | increase of MIC (C. difficile 630Δerm; [2]) [fold] | increase of MIC (C. difficile 630Δerm; [3]) [fold] | increase in the MIC (C. difficile 630Δerm; plasmid carrying polC-p.A1263T versus wild-type strain)
1 | O=c1[nH]c(NCc2ccc(Cl)c(Cl)c2)nc2ncn(CCN3CCOCC3)c12 [IBZ, N^2-(3,4-dichlorobenzyl)-7-(2-[1-morpholinyl]ethyl)guanine] | 49.8 and 49.1 and 50.9 | 37.6 and 41.6 and 39.1 | 40.9 and 43.1 and 37.2 | 38.6 and 37.7 and 36.0 | 35.7 and 37.2 and 30.7 | 28.3 and 28.4 and 27.5 | 18.3 and 24.4 and 21.1 | 19.9 and 17.8 and 14.2 | 89.3 | ~ seven-fold | 2 (≈ 4.72 µM) | 8 | 32 | 2 | –
2 | O=c1[nH]c(NCc2ccc3c(c2)OC(F)(F)O3)nc2c(F)nn(CCO)c12 [ACX-801, 5-(((2,2-difluorobenzo[d][1,3]dioxol-5-yl)methyl)amino)-3-fluoro-1-(2-hydroxyethyl)-1,6-dihydro-7H-pyrazolo[4,3-d]pyrimidin-7-one] | 49.5 and 44.4 and 49.3 | 51.3 and 51.4 and 45.3 | 48.4 and 47.3 and 48.0 | 47.8 and 51.2 | 50.3 and 47.9 and 46.9 | 47.9 and 46.1 and 47.4 | 46.5 and 39.7 and 47.4 | 45.5 and 39.2 and 38.1 | > 100 | – | 2 (≈ 5.22 µM) | 32 | ≥ 32 | 4 | fourfold
